In the kinase profiling compilation of Christmann-Franck et al. (2016):

What was measured:
Assay in all cases: KINOMEscan competition binding
CDK3 (human) = CDK3 (human) (UniProt Q00526); conditions: compound 1.0 µM
EGFR (human) = EGFR (human) (UniProt P00533); conditions: compound 1.0 µM
CRK2 (P.falciparum) = CRK2 (P.falciparum) (UniProt P61075); conditions: compound 1.0 µM
STK3 (human) = STK3 (human) (UniProt Q13188); conditions: compound 1.0 µM
[1] = test system: EGFR (human), P00533 [G719S]; conditions: compound 1.0 µM
TLK1 (human) = TLK1 (human) (UniProt Q9UKI8); conditions: compound 1.0 µM
[2] = test system: LRRK2 (human), Q5S007 [G2019S]; conditions: compound 1.0 µM
Sequence of LRRK2 (human), Q5S007 [G2019S] (Q5S007 whole entry G2019S, looked up): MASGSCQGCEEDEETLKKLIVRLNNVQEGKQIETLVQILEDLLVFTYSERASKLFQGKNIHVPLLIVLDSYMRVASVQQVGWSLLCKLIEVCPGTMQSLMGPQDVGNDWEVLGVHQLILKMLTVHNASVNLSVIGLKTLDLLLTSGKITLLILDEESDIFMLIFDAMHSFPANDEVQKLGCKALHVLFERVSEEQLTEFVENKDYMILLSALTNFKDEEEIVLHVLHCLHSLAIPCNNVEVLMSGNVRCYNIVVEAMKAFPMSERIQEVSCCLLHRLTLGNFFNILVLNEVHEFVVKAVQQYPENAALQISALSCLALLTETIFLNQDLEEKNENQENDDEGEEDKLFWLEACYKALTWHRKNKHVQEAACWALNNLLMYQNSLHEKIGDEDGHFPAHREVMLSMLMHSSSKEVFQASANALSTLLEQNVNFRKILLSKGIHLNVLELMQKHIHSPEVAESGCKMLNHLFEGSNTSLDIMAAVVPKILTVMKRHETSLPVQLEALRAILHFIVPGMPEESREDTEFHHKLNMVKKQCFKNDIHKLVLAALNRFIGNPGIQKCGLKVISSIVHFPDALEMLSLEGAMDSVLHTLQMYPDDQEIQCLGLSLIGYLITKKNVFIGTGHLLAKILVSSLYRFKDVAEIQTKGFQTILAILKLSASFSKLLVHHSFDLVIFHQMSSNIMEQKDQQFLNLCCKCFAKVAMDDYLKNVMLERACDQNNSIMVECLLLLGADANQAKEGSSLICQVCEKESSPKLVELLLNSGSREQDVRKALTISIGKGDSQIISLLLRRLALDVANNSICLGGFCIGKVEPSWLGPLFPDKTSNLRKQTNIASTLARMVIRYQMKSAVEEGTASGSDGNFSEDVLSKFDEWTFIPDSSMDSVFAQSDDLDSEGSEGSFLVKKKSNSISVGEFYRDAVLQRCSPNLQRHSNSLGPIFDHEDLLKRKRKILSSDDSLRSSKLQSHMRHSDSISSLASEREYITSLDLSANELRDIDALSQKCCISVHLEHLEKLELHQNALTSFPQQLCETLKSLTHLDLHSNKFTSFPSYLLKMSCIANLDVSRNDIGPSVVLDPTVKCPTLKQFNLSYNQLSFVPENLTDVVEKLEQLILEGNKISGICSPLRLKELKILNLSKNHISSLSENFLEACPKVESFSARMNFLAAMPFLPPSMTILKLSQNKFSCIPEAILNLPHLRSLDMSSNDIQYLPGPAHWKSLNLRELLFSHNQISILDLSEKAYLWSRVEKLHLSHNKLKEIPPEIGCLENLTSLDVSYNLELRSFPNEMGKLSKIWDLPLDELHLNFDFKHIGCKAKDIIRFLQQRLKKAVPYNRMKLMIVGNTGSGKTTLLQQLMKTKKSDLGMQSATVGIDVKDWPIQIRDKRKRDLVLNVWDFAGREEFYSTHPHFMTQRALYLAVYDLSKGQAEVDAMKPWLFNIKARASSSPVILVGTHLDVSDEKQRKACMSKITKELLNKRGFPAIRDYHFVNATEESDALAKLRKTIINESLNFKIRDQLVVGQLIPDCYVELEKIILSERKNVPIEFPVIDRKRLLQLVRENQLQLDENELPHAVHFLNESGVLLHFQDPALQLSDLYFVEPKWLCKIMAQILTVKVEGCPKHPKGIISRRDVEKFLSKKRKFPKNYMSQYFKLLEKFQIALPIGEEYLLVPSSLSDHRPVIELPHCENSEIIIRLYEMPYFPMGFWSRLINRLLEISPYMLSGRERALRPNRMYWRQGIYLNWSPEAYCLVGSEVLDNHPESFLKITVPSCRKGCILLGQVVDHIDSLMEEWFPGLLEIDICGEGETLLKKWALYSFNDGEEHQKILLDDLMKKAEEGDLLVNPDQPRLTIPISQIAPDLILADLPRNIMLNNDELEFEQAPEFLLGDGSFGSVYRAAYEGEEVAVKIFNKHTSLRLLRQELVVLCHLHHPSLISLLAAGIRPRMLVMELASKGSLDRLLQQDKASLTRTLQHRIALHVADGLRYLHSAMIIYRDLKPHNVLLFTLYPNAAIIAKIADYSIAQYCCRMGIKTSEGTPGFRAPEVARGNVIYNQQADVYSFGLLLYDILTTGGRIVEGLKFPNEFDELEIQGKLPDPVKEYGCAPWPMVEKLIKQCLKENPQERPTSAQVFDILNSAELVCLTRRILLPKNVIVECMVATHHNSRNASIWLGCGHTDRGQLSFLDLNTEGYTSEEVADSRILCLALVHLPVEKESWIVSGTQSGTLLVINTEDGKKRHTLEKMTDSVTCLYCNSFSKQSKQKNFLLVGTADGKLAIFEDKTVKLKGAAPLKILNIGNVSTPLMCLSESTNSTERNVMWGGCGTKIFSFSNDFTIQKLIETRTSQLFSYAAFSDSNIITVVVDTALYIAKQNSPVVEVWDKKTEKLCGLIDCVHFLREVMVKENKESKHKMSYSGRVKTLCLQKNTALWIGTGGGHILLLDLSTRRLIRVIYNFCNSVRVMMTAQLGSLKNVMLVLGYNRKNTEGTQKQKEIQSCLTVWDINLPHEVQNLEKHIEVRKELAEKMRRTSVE

SRPK1 (human) = SRPK1 (human) (UniProt Q96SB4); conditions: compound 1.0 µM
[3] = test system: FLT3 (human), P36888 [D835Y]; conditions: compound 1.0 µM
FYN (human) = FYN (human) (UniProt P06241); conditions: compound 1.0 µM
INSR (human) = INSR (human) (UniProt P06213); conditions: compound 1.0 µM
BMX (human) = BMX (human) (UniProt P51813); conditions: compound 1.0 µM
MATK (human) = MATK (human) (UniProt P42679); conditions: compound 1.0 µM
CAMKK2 (human) = CAMKK2 (human) (UniProt Q96RR4); conditions: compound 1.0 µM
WEE1 (human) = WEE1 (human) (UniProt P30291); conditions: compound 1.0 µM
CDK5 (human) = CDK5 (human) (UniProt Q00535); conditions: compound 1.0 µM
Sequence of CDK5 (human) (Q00535 whole entry, looked up): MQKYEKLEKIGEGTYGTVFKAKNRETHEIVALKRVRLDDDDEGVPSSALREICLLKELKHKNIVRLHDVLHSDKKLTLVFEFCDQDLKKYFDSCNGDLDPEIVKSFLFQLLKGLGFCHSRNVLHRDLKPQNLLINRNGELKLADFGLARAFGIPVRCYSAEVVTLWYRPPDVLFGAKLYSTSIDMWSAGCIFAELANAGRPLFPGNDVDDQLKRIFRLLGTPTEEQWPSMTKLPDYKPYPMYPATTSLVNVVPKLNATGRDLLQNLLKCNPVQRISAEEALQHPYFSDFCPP

IGF1R (human) = IGF1R (human) (UniProt P08069); conditions: compound 1.0 µM
MYO3B (human) = MYO3B (human) (UniProt Q8WXR4); conditions: compound 1.0 µM
TAOK3 (human) = TAOK3 (human) (UniProt Q9H2K8); conditions: compound 1.0 µM
CLK3 (human) = CLK3 (human) (UniProt P49761); conditions: compound 1.0 µM
MAP2K6 (human) = MAP2K6 (human) (UniProt P52564); conditions: compound 1.0 µM
CDK17 (human) = CDK17 (human) (UniProt Q00537); conditions: compound 1.0 µM
DYRK2 (human) = DYRK2 (human) (UniProt Q92630); conditions: for kinase still bound, per cent of control: compound 1.0 µM
Sequence of DYRK2 (human) (Q92630 whole entry, looked up): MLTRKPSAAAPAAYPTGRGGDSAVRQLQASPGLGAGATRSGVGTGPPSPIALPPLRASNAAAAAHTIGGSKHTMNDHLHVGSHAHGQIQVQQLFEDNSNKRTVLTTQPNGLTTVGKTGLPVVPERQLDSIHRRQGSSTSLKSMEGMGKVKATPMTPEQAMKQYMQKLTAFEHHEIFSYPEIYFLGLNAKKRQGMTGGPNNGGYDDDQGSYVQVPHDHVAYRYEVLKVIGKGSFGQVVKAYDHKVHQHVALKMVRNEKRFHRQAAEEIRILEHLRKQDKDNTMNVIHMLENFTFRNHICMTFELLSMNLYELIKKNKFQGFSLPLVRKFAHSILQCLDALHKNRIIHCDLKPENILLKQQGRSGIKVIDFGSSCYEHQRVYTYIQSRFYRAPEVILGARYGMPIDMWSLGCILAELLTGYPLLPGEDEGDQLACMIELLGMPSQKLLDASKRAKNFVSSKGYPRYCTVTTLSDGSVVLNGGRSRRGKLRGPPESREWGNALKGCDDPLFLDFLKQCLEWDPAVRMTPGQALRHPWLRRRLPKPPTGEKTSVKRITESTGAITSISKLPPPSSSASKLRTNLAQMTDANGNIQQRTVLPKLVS

[4] = target: JAK3 JH1 catalytic (human) (UniProt P52333); conditions: compound 1.0 µM
NUAK2 (human) = NUAK2 (human) (UniProt Q9H093); conditions: compound 1.0 µM
NEK11 (human) = NEK11 (human) (UniProt Q8NG66); conditions: compound 1.0 µM
Sequence of NEK11 (human) (Q8NG66 whole entry, looked up): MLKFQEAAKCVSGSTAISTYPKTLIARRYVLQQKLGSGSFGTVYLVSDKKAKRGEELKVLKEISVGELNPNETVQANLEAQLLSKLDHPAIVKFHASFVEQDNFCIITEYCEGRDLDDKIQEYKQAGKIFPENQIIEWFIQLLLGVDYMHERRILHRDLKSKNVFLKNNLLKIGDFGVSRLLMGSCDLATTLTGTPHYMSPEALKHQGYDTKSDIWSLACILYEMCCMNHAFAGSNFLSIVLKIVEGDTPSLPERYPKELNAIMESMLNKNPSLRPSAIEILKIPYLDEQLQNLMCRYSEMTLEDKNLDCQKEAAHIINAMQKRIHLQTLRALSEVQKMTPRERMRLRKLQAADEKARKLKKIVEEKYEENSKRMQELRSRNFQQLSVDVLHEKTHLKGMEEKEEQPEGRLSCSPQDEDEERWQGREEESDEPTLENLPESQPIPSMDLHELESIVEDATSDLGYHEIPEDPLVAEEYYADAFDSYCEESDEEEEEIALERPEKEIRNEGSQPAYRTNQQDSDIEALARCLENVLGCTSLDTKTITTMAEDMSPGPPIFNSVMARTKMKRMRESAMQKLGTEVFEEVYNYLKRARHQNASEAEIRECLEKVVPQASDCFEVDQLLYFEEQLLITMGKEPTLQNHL

GAK (human) = GAK (human) (UniProt O14976); conditions: compound 1.0 µM
TBK1 (human) = TBK1 (human) (UniProt Q9UHD2); conditions: compound 1.0 µM
LYN (human) = LYN (human) (UniProt P07948); conditions: compound 1.0 µM
PRKCH (human) = PRKCH (human) (UniProt P24723); conditions: compound 1.0 µM
MYLK3 (human) = MYLK3 (human) (UniProt Q32MK0); conditions: compound 1.0 µM
[5] = test system: EGFR (human), P00533 [L858R]; conditions: compound 1.0 µM
MAPK14 (human) = MAPK14 (human) (UniProt Q16539); conditions: compound 1.0 µM
CDK19 (human) = CDK19 (human) (UniProt Q9BWU1); conditions: compound 1.0 µM
TAOK2 (human) = TAOK2 (human) (UniProt Q9UL54); conditions: compound 1.0 µM
MKNK2 (human) = MKNK2 (human) (UniProt Q9HBH9); conditions: compound 1.0 µM
STK16 (human) = STK16 (human) (UniProt O75716); conditions: compound 1.0 µM
Sequence of STK16 (human) (O75716 whole entry, looked up): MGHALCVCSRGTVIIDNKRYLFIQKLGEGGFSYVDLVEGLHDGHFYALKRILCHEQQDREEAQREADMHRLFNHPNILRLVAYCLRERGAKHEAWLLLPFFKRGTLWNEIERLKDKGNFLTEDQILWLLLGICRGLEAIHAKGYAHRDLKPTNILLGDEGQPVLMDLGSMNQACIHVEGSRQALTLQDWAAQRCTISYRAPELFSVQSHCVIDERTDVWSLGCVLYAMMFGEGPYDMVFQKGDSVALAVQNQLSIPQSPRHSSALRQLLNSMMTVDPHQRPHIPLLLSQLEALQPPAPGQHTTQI

MAP3K4 (human) = MAP3K4 (human) (UniProt Q9Y6R4); conditions: compound 1.0 µM
[6] = test system: PIK3CA (human), P42336 [E545A]; conditions: compound 1.0 µM
RPS6KA1 KD2 (human) = RPS6KA1 KD2 (human) (UniProt Q15418); conditions: compound 1.0 µM
NEK5 (human) = NEK5 (human) (UniProt Q6P3R8); conditions: compound 1.0 µM
PKN1 (human) = PKN1 (human) (UniProt Q16512); conditions: compound 1.0 µM
CDKL1 (human) = CDKL1 (human) (UniProt Q00532); conditions: compound 1.0 µM
Sequence of CDKL1 (human) (Q00532 whole entry, looked up): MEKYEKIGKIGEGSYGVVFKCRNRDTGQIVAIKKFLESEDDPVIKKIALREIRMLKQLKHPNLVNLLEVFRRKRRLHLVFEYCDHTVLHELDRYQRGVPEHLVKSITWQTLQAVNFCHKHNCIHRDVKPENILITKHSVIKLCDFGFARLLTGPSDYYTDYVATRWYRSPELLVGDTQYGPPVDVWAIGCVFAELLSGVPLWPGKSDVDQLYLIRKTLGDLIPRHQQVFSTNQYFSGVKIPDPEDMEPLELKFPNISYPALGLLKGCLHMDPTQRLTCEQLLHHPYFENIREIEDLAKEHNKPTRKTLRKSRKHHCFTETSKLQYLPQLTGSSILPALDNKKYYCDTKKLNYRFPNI

Sequence of CDK3 (human) (Q00526 whole entry, looked up): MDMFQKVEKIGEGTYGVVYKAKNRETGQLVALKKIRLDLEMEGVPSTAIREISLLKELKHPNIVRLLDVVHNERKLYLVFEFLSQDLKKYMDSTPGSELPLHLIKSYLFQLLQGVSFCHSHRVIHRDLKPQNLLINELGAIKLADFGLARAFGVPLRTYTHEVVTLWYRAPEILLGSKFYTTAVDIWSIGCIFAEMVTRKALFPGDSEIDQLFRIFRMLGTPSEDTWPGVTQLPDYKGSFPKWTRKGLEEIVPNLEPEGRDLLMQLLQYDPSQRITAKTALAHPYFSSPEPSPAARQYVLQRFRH

CN(C)C/C=C/C(=O)Nc1cccc(C(=O)Nc2ccc(Nc3nccc(/C(C#N)=C4\Nc5ccccc5S4)n3)cc2)c1
kinase still bound, per cent of control (CDK3 (human)): 100%
kinase still bound, per cent of control (EGFR (human)): 81%
kinase still bound, per cent of control (CRK2 (P.falciparum)): 100%
kinase still bound, per cent of control (STK3 (human)): 91%
kinase still bound, per cent of control [1]: 100%
kinase still bound, per cent of control (TLK1 (human)): 100%
kinase still bound, per cent of control [2]: 100%
kinase still bound, per cent of control (SRPK1 (human)): 91%
kinase still bound, per cent of control [3]: 73%
kinase still bound, per cent of control (FYN (human)): 95%
kinase still bound, per cent of control (INSR (human)): 100%
kinase still bound, per cent of control (BMX (human)): 88%
kinase still bound, per cent of control (MATK (human)): 100%
kinase still bound, per cent of control (CAMKK2 (human)): 100%
kinase still bound, per cent of control (WEE1 (human)): 100%
kinase still bound, per cent of control (CDK5 (human)): 100%
kinase still bound, per cent of control (IGF1R (human)): 100%
kinase still bound, per cent of control (MYO3B (human)): 100%
kinase still bound, per cent of control (TAOK3 (human)): 100%
kinase still bound, per cent of control (CLK3 (human)): 100%
kinase still bound, per cent of control (MAP2K6 (human)): 100%
kinase still bound, per cent of control (CDK17 (human)): 100%
kinase still bound, per cent of control (DYRK2 (human)): 15%
kinase still bound, per cent of control [4]: 83%
kinase still bound, per cent of control (NUAK2 (human)): 100%
kinase still bound, per cent of control (NEK11 (human)): 100%
kinase still bound, per cent of control (GAK (human)): 79%
kinase still bound, per cent of control (TBK1 (human)): 100%
kinase still bound, per cent of control (LYN (human)): 94%
kinase still bound, per cent of control (PRKCH (human)): 100%
kinase still bound, per cent of control (MYLK3 (human)): 100%
kinase still bound, per cent of control [5]: 96%
kinase still bound, per cent of control (MAPK14 (human)): 95%
kinase still bound, per cent of control (CDK19 (human)): 93%
kinase still bound, per cent of control (TAOK2 (human)): 100%
kinase still bound, per cent of control (MKNK2 (human)): 68%
kinase still bound, per cent of control (STK16 (human)): 100%
kinase still bound, per cent of control (MAP3K4 (human)): 100%
kinase still bound, per cent of control [6]: 100%
kinase still bound, per cent of control (RPS6KA1 KD2 (human)): 100%
kinase still bound, per cent of control (NEK5 (human)): 100%
kinase still bound, per cent of control (PKN1 (human)): 92%
kinase still bound, per cent of control (CDKL1 (human)): 66%

CN(C)C/C=C/C(=O)Nc1cccc(C(=O)Nc2ccc(Nc3nccc(-c4cccnc4)n3)cc2)c1
kinase still bound, per cent of control (CDK3 (human)): 100%
kinase still bound, per cent of control (EGFR (human)): 95%
kinase still bound, per cent of control (CRK2 (P.falciparum)): 100%
kinase still bound, per cent of control (STK3 (human)): 87%
kinase still bound, per cent of control [1]: 78%
kinase still bound, per cent of control (TLK1 (human)): 92%
kinase still bound, per cent of control [2]: 51%
kinase still bound, per cent of control (SRPK1 (human)): 50%
kinase still bound, per cent of control [3]: 13%
kinase still bound, per cent of control (FYN (human)): 90%
kinase still bound, per cent of control (INSR (human)): 100%
kinase still bound, per cent of control (BMX (human)): 70%
kinase still bound, per cent of control (MATK (human)): 99%
kinase still bound, per cent of control (CAMKK2 (human)): 40%
kinase still bound, per cent of control (WEE1 (human)): 84%
kinase still bound, per cent of control (CDK5 (human)): 89%
kinase still bound, per cent of control (IGF1R (human)): 100%
kinase still bound, per cent of control (MYO3B (human)): 100%
kinase still bound, per cent of control (TAOK3 (human)): 94%
kinase still bound, per cent of control (CLK3 (human)): 84%
kinase still bound, per cent of control (MAP2K6 (human)): 53%
kinase still bound, per cent of control (CDK17 (human)): 84%
Kd (DYRK2 (human)): 0.12 µM
kinase still bound, per cent of control (DYRK2 (human)): 3.2%
kinase still bound, per cent of control [4]: 27%
kinase still bound, per cent of control (NUAK2 (human)): 31%
kinase still bound, per cent of control (NEK11 (human)): 86%
kinase still bound, per cent of control (GAK (human)): 33%
kinase still bound, per cent of control (TBK1 (human)): 61%
kinase still bound, per cent of control (LYN (human)): 86%
kinase still bound, per cent of control (PRKCH (human)): 84%
kinase still bound, per cent of control (MYLK3 (human)): 85%
kinase still bound, per cent of control [5]: 91%
kinase still bound, per cent of control (MAPK14 (human)): 83%
kinase still bound, per cent of control (CDK19 (human)): 58%
kinase still bound, per cent of control (TAOK2 (human)): 54%
kinase still bound, per cent of control (MKNK2 (human)): 13%
kinase still bound, per cent of control (STK16 (human)): 15%
kinase still bound, per cent of control (MAP3K4 (human)): 88%
kinase still bound, per cent of control [6]: 95%
kinase still bound, per cent of control (RPS6KA1 KD2 (human)): 82%
kinase still bound, per cent of control (NEK5 (human)): 7.8%
kinase still bound, per cent of control (PKN1 (human)): 100%
kinase still bound, per cent of control (CDKL1 (human)): 54%
